# Patent publication US8222278B2, “Treatment of attention-deficit/hyperactivity disorder” (Abbott Laboratories, priority 2008, dated 2012)
# Tested on: adults with ADHD
# Assay: Study A: ABT-894 Adult ADHD Dose-Ranging crossover clinical study, efficacy rating scales
# Assay type: in vivo, human
# Method: A clinical study (Study A) was conducted to assess the safety and efficacy of ABT-894 compared to placebo in adults with ADHD and to evaluate the dose-response relationship.
# A total of 243 subjects aged 18 to 60 years old meeting DSM-IV-TR criteria for ADHD were randomized across the 5 dose groups. Male or female patients were included. […] The disposition of the study subjects is further discussed with the study results below.
# Subjects in each dose group received, in random order, both ABT-894 and placebo according to a 2×2 crossover design. Each treatment period was 4 weeks separated by a 2-week washout period.
# Each site was assigned to one of two cohorts (Cohort A or Cohort B) in approximately a 3:2 ratio. Subjects in Cohort A were randomized in equal proportions to one of 6 treatment sequences in 3 dose groups, and subjects in Cohort B were randomized in equal proportions to one of 4 treatment sequences in 2 dose groups, as shown in Table 1. Within each dose group subjects received either ABT-894 or atomoxetine in Period 1 and placebo in Period 2, or placebo in Period 1 and ABT-894 or atomoxetine in Period 2.
# The study medication was dispensed in the form of a capsule. Each capsule contained ABT-894, atomoxetine, or placebo. The capsules were made to look identical.
# The primary efficacy endpoint was the Conners' Adult ADHD Rating Scale—Investigator Rated (CAARS:Inv) Total Score (18 items) at the final evaluation of each 4-week treatment period. The CAARS:Inv was assessed at baseline and Days 7. 14. 21, and 28 of each period. Each CAARS:Inv item was rated on a 4-point scale of frequency of occurrence (0=not at all, never; 3=very much. very frequently) during the previous 7 days.
# Secondary efficacy endpoints included the CAARS:Inv Inattentive and Hyperactive/Impulsive Subscale Scores, Clinical Global Impression-ADHD-Severity Scale (CGI-ADHD-S). Adult ADHD Investigator Symptom Report Scale (AISRS), including total and subscales, and the Self-rated Connors Adult ADHD Rating Scale (CAARS-Self). Health outcomes including the Adult ADHD Quality of Life Scale (AAQoL) and Work Productivity and Activity Impairment Questionnaire (WPAI) were used to evaluate the validity of these scales in this study population for use in subsequent clinical trials.
# The primary analysis was performed on each dose group separately according to the Statistical Analysis Plan (SAP). The primary statistical model that was used for analyzing the primary efficacy variable, the CAARS:INV total score, and all other secondary efficacy variables was determined by a SAP specified testing procedure. The comparability between two sequences for a given dose group with respect to the difference between period-specific baselines was tested using a one-way ANCOVA with the term of treatment and the Period I baseline as the covariate at the significance level of 0.10. The equal residual effect from Period I to Period II between two different sequences for a given dose group was tested using a standard model for cross-over data analysis, Grizzle model, on the term of “sequence” at the significance level of 0.10.
# After the study blind was broken, across 5 dose groups. all the tests accepted the null hypothesis that there was no statistically significant treatment effect for the differences between the period-specific baselines. The tests also accepted the null hypothesis that there was no period residual effect in any of the dose groups. Accordingly, the Grizzle model was used as the primary analysis model to analyze treatment group difference for CAARS:INV total score at Day 28 for each dose group. The Grizzle Model was carried out by SAS PROC Mixed with the terms of study center. sequence, subjects within sequence, period, treatment, as well as period-specific baselines as covariates.
# The primary efficacy dataset included all subjects who completed both periods of the study (completers dataset). […]
# [1] = ABT-894 1 mg QD, day 28, completers N = 40
# [2] = ABT-894 2 mg QD, day 28, completers N = 37
# [3] = ABT-894 4 mg BID, day 28, completers N = 43
# [4] = ABT-894 4 mg QD, day 28, completers N = 36
smiles,measurement,setting,value
"Clc1cc(N2C[C@@H]3CN[C@@H]3C2)cnc1Cl [ABT-894, 3-(5,6-Dichloro-pyridin-3-yl)-1S,5S-3,6-diazabicyclo[3.2.0]heptane]","AISRS Hyperactivity Score, mean difference from placebo",[1],"1.53 (−0.8, 3.8)"
same,"AISRS Inattention Score, mean difference from placebo",[1],"1.72 (−0.6, 4.1)"
same,"AISRS Total Score, mean difference from placebo",[1],"3.19 (−1.2, 7.6)"
same,"CAARS:Inv ADHD Index, mean difference from placebo",[1],1.84 (−0.0. 3.7)
same,"CAARS:Inv Hyperactive/Impulsive subscale score, mean difference from placebo",[1],"0.93 (−0.2, 2.0)"
same,"CAARS:Inv Inattentive subscale score, mean difference from placebo",[1],"0.94 (−1.5, 3.4)"
same,"CAARS:Inv Total Score, mean difference from placebo",[1],"2.11 (−2.4, 6.6)"
same,"CAARS:Self ADHD Index, mean difference from placebo",[1],"2.04 (0.2, 3.9)"
same,"CAARS:Self Hyperactivity Score, mean difference from placebo",[1],"0.68 (−0.4, 1.8)"
same,"CAARS:Self Impulsivity Score, mean difference from placebo",[1],"0.65 (−0.1, 1.4)"
same,"CAARS:Self Inattention/Memory Score, mean difference from placebo",[1],"0.60 (−0.5, 1.7)"
same,"CAARS:Self Problem with Self-concept Score, mean difference from placebo",[1],"0.51 (−0.2, 1.2)"
same,"CAARS:Self Total Score, mean difference from placebo",[1],"3.57 (−0.4, 7.5)"
same,"CGI-ADHD-S, mean difference from placebo",[1],"0.04 (−0.3, 0.4)"
same,"Measures of sustained attention, inhibitory control, and executive function",ABT-894 2 mg QD,"improved measures of sustained attention, inhibitory control, and executive function"
same,"AISRS Hyperactivity Score, mean difference from placebo",[2],"−1.11 (−3.0, 0.7)"
same,"AISRS Inattention Score, mean difference from placebo",[2],"−1.59 (−3.6, 0.4)"
same,"AISRS Total Score, mean difference from placebo",[2],"−2.72 (−6.4, 1.0)"
same,"CAARS:Inv ADHD Index, mean difference from placebo",[2],"−1.52 (−3.3, 0.2)"
same,"CAARS:Inv Hyperactive/Impulsive subscale score, mean difference from placebo",[2],"−0.55 (−1.4, 0.3)"
same,"CAARS:Inv Inattentive subscale score, mean difference from placebo",[2],"−1.92 (−3.8, −0.1)"
same,"CAARS:Inv Total Score, mean difference from placebo",[2],"−3.18 (6.7,0.3)"
same,"CAARS:Self ADHD Index, mean difference from placebo",[2],"−1.50 (−3.3, 0.3)"
same,"CAARS:Self Hyperactivity Score, mean difference from placebo",[2],"−0.57 (−1.4, 0.3)"
same,"CAARS:Self Impulsivity Score, mean difference from placebo",[2],"−0.48 (−1.3, 0.3)"
same,"CAARS:Self Inattention/Memory Score, mean difference from placebo",[2],"−0.23 (−1.2, 0.8)"
same,"CAARS:Self Problem with Self-concept Score, mean difference from placebo",[2],"−0.57 (−1.6, 0.5)"
same,"CAARS:Self Total Score, mean difference from placebo",[2],"−2.64 (−6.6, 1.3)"
same,"CGI-ADHD-S, mean difference from placebo",[2],"−0.31 (−0.6, 0.0)"
same,Efficacy measures compared with atomoxetine,ABT-894 4 mg BID vs atomoxetine,comparable across efficacy measures
same,"AISRS Hyperactivity Score, mean difference from placebo",[3],"−3.58 (−5.6, −1.6)"
same,"AISRS Inattention Score, mean difference from placebo",[3],"−4.26 (−6.6, −1.9)"
same,"AISRS Total Score, mean difference from placebo",[3],"−8.07 (−12.2, −3.9)"
same,"CAARS:Inv ADHD Index, mean difference from placebo",[3],−3.37 (−5.3. −1.4)
same,"CAARS:Inv Hyperactive/Impulsive subscale score, mean difference from placebo",[3],"−1.90 (−3.0, −0.8)"
same,"CAARS:Inv Inattentive subscale score, mean difference from placebo",[3],"−4.08 (−6.4, −1.7)"
same,"CAARS:Self ADHD Index, mean difference from placebo",[3],"−3.31 (−5.2, −1.4)"
same,"CAARS:Self Hyperactivity Score, mean difference from placebo",[3],"−1.74 (−2.9, −0.6)"
same,"CAARS:Self Impulsivity Score, mean difference from placebo",[3],"−0.70 (−1.4, −0.0)"
same,"CAARS:Self Inattention/Memory Score, mean difference from placebo",[3],"−1.40 (−2.5, −0.3)"
same,"CAARS:Self Problem with Self-concept Score, mean difference from placebo",[3],"−1.39 (−2.5, −0.3)"
same,"CAARS:Self Total Score, mean difference from placebo",[3],"−7.34 (−11.6, −3.1)"
same,"CGI-ADHD-S, mean difference from placebo",[3],"−0.58 (−1.0, −0.2)"
same,"AISRS Hyperactivity Score, mean difference from placebo",[4],"−0.81 (−2.6, 1.0)"
same,"AISRS Inattention Score, mean difference from placebo",[4],"0.81 (−1.2, 2.8)"
same,"AISRS Total Score, mean difference from placebo",[4],"−0.13 (−3.6, 3.4)"
same,"CAARS:Inv ADHD Index, mean difference from placebo",[4],"−0.12 (−1.8, 1.5)"
same,"CAARS:Inv Hyperactive/Impulsive subscale score, mean difference from placebo",[4],"−1.07 (−2.1, −0.0)"
same,"CAARS:Inv Inattentive subscale score, mean difference from placebo",[4],"0.60 (−1.5, 2.7)"
same,"CAARS:Inv Total Score, mean difference from placebo",[4],"0.23 (−3.2, 3.7)"
same,"CAARS:Self ADHD Index, mean difference from placebo",[4],"−0.19 (−1.9, 1.5)"
same,"CAARS:Self Hyperactivity Score, mean difference from placebo",[4],"−0.78 (−1.8, 0.2)"
same,"CAARS:Self Impulsivity Score, mean difference from placebo",[4],"−0.02 (−0.9, 0.9)"
same,"CAARS:Self Inattention/Memory Score, mean difference from placebo",[4],"0.11 (−0.9, 1.2)"
same,"CAARS:Self Problem with Self-concept Score, mean difference from placebo",[4],"0.33 (−0.7, 1.4)"
same,"CAARS:Self Total Score, mean difference from placebo",[4],"−1.13 (−5.2, 2.9)"
same,"CGI-ADHD-S, mean difference from placebo",[4],"−0.06 (−0.3, 0.2)"
same,Efficacy in the treatment of the core symptoms of ADHD,"human patients, compared to placebo",statistically significant efficacy compared to placebo
